Measurements: US11035003B2, “TRPC6 involved in glomerulonephritis” (Duke University, priority 2005, dated 2021)
Numbering of substitutions follows the chain as printed.

Assays:
WT TRPC6 = target: T1, WT TRPC6 (Homo sapiens, UniProt Q9Y210); assay: Fura-2 single cell imaging of divalent cations in HEK 293 cells transfected with WT TRPC6; assay type: cell-based
T1 construct: expressed in transfected cells; host or cells: HEK 293
T1 sequence (Q9Y210 1-931): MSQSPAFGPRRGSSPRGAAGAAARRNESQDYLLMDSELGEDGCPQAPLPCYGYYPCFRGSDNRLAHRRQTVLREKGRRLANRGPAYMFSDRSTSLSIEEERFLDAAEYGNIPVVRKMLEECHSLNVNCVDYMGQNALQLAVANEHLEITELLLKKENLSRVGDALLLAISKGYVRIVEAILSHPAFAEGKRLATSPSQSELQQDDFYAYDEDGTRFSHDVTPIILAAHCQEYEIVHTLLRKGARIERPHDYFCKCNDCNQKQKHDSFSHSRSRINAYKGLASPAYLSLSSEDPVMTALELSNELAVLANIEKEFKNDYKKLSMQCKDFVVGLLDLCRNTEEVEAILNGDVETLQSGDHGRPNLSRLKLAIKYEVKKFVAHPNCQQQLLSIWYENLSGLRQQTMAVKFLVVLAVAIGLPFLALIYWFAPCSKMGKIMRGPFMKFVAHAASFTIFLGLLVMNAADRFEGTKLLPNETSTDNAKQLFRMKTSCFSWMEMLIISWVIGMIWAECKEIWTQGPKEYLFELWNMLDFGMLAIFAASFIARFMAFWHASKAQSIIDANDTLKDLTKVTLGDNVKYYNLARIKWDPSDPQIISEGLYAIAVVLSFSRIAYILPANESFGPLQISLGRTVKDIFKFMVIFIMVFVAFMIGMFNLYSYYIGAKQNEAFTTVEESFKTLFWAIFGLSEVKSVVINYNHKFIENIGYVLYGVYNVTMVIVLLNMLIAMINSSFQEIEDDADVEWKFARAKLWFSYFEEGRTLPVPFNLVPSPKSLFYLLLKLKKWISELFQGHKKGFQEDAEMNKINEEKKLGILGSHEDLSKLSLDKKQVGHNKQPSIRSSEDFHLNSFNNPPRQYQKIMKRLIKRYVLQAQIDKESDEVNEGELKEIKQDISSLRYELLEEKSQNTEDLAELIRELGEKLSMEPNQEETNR
Source text: (§1) To determine the effect of the P112Q mutation on TRPC6 function, we studied HEK 293 cells (human kidney cells) transfected with mutant (TRPC6^P112Q) or wild-type (WT) TRPC6 (14). The WT TRPC6 was cloned from a human kidney cDNA library. […] Diacylglycerol (DAG) is a potent activator of TRPC6 (15). We therefore measured the intracellular calcium concentration ([Ca^+2]i) using Fura fluorescence in HEK 293 cells expressing either the WT or TRPC6^P112Q after exposure to the DAG analogue OAG (1-oleoyl-2-acetyl-sn-glycerol). OAG perfusion increased late Ca^+2 transients in cells transfected with WT TRPC6 as expected (FIG. 3A and FIG. 7).
(§2) Angiotensin II acting through its AT1 receptor plays a critical role in the generation of proteinuria and progression of kidney injury in a number of kidney diseases including FSGS (16). AT1 receptors, coupled to heterotrimeric G nucleotide-binding proteins, activate phospholipase C-beta isoforms that hydrolyze phosphatidylinositol 4,5-bisphosphate (PIP2). This triggers production of inositol 1,4,5-trisphosphate (InsP3) and diacylglycerol (DAG) releases internal calcium stores and activates Ca^+2 entry, respectively (17). We examined whether the P112Q mutation would affect angiotensin II-dependent (i.e., receptor-operated) calcium signaling. HEK 293 cells were co-transfected with the AT1 angiotensin receptor (AT-YFP) and either WT TRPC6 or TRPC6^P112Q. [Ca^+2]i changes were measured after exposure to angiotensin II (FIG. 3B and FIG. 8); similar to the OAG experiments, the peak angiotensin II-stimulated [Ca^+2]i was higher in cells expressing the mutant protein compared with WT controls ([Ca^2+]i TRPC6^P112Q=640±66 nM vs. [Ca^2+]i WT TRPC6=357±46 nM; p<0.05). To establish that the P112Q mutation is not isolated to TRPC6 channels, we introduced the analogous mutation into the TRPC3 channel.
(§3) HEK 293 cells were plated on glass bottom plates at near confluence. After 24 hours, the cells were transfected with plasmids in the presence of lipofectamine 2000 (Invitrogen). Here 3 μg of TRPC6 plasmid (WT or mutant) and 1 μg of ATR-YFP plasmid were incubated for 4 hours in Optimem 2000 media (Gibco) and then changed to 10% FBS/DMEM media. For biotinylation experiments, 24 hours after transfection with TRPC6-V5 and TRPC6^P112Q-V5 constructs, cells were washed with ice cold PBS and incubated with sulfo-NHS-SS-Biotin (2 mg/ml) (Pierce) for 30-min at 4° C. After 3 washes with PBS with 10 mM glycine, cells were incubated with RIPA lysis buffer for 30-min at 4° C. Lysates were passed through a 20 G and then 25 G needle for 25 passes. Samples were then collected by centrifuging at 20K G for 15-min at 4° C. Supernatants were then incubated overnight with streptavidin agaraose beads (Pierce), washed 3 times and then heated to 37° C. […]

TRPC6^P112Q = target: T2, TRPC6^P112Q (Homo sapiens, UniProt Q9Y210, P112Q); assay: Fura-2 single cell imaging of divalent cations in HEK 293 cells transfected with TRPC6^P112Q; assay type: cell-based
T2 construct: expressed in transfected cells; host or cells: HEK 293
T2 sequence (Q9Y210 1-931 P112Q): T1 sequence (Q9Y210 1-931) with P112Q
Source text: as §1, §2, §3

Row | Peak intracellular calcium concentration [Ca2+]i after OAG perfusion (WT TRPC6; HEK 293 cells transfected with WT TRPC6, 100 μM OAG, Fura fluorescence) | OAG-stimulated barium transients, ratio (WT TRPC6; HEK293 cells transfected with WT TRPC6, Fura-2, barium as surrogate for calcium) | OAG-stimulated barium transients, 4340/380 ratio (TRPC6^P112Q; HEK293 cells transfected with TRPC6P112Q, Fura-2, barium as surrogate for calcium) | Peak intracellular calcium concentration [Ca2+]i after OAG perfusion (TRPC6^P112Q; HEK 293 cells transfected with TRPC6^P112Q, 100 μM OAG, Fura fluorescence) | Molecule | Peak angiotensin II-stimulated [Ca2+]i (WT TRPC6; HEK 293 cells co-transfected with AT1 receptor (AT-YFP) and WT TRPC6, angiotensin II 1 μM) | Duration of angiotensin II-induced barium signal (WT TRPC6; HEK 293 cells co-transfected with AT1 receptor and WT TRPC6) | Peak angiotensin II-stimulated [Ca2+]i (TRPC6^P112Q; HEK 293 cells co-transfected with AT1 receptor (AT-YFP) and TRPC6^P112Q, angiotensin II 1 μM) | Duration of angiotensin II-induced barium signal (TRPC6^P112Q; HEK 293 cells co-transfected with AT1 receptor and TRPC6^P112Q)
1 | 106 ± 15 nM | 0.49±0.18 | 1.30±0.7 | 181 ± 25 nM | CCCCCCCC/C=C\CCCCCCCC(=O)OC[C@H](CO)OC(C)=O [OAG, 1-oleoyl-2-acetyl-sn-glycerol] | – | – | – | –
2 | – | – | – | – | angiotensin II: ligand acting through its AT1 receptor, used to stimulate receptor-operated calcium signaling (DRVYIHPF; Angiotensin-2; UniProt P01019 25-32, looked up) | 357 ± 46 nM | 271 ± 121 s | 640 ± 66 nM | 1054 ± 282 s
